# From PubChem BioAssay (NCI)
#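 Each compound was tested at five concentrations against cells in 96-well plates for 48 hours. The concentration for 50% growth inhibition is given as GI50. TGI is the concentration that stops growth completely.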
# Experiments:
# Assay in all cases: NCI-60 cell line screen, 48 h
# HS 578T breast = system: HS 578T breast
# A498 renal = system: A498 renal
# KM12 colon = system: KM12 colon
# SK-OV-3 ovarian = system: SK-OV-3 ovarian
# HT29 colon = system: HT29 colon
# ACHN renal = system: ACHN renal
# OVCAR-3 ovarian = system: OVCAR-3 ovarian
# NCI-H23 lung = system: NCI-H23 lung
# NCI-H460 lung = system: NCI-H460 lung
# SK-MEL-28 melanoma = system: SK-MEL-28 melanoma
# MCF7 breast = system: MCF7 breast
# MOLT-4 leukemia = system: MOLT-4 leukemia
# UACC-257 melanoma = system: UACC-257 melanoma
# EKVX NSCLC = system: EKVX NSCLC
# SF-295 CNS = system: SF-295 CNS
# OVCAR-8 ovarian = system: OVCAR-8 ovarian
# LOX IMVI melanoma = system: LOX IMVI melanoma
# OVCAR-4 ovarian = system: OVCAR-4 ovarian
# CCRF-CEM leukemia = system: CCRF-CEM leukemia
# NCI/ADR-RES ovarian = system: NCI/ADR-RES ovarian
# MALME-3M melanoma = system: MALME-3M melanoma
# CAKI-1 renal = system: CAKI-1 renal
# SNB-19 CNS = system: SNB-19 CNS
# HL-60(TB) leukemia = system: HL-60(TB) leukemia
# BT-549 breast = system: BT-549 breast
# TK-10 renal = system: TK-10 renal
# HCT-15 colon = system: HCT-15 colon
# MDA-MB-435 = system: MDA-MB-435
# SF-268 CNS = system: SF-268 CNS
# OVCAR-5 ovarian = system: OVCAR-5 ovarian
# IGROV1 ovarian = system: IGROV1 ovarian
# T-47D breast = system: T-47D breast
# A549 NSCLC = system: A549 NSCLC
# SK-MEL-5 melanoma = system: SK-MEL-5 melanoma
# U251 CNS = system: U251 CNS
# SF-539 CNS = system: SF-539 CNS
# COLO 205 colon = system: COLO 205 colon
# PC-3 prostate = system: PC-3 prostate
# RXF 393 renal = system: RXF 393 renal
# UO-31 renal = system: UO-31 renal
# SW-620 colon = system: SW-620 colon
# SK-MEL-2 melanoma = system: SK-MEL-2 melanoma
# HCC-2998 colon = system: HCC-2998 colon
# SNB-75 CNS = system: SNB-75 CNS
smiles,measurement,setting,value
O=C(CSc1nc2ccccc2[nH]1)Nc1ccc(-c2nc3ccccc3s2)c(Cl)c1,GI50,HS 578T breast,4.5 µM
same,TGI,HS 578T breast,> 100 µM
same,GI50,A498 renal,2.22 µM
same,TGI,A498 renal,52.7 µM
same,GI50,KM12 colon,2.67 µM
same,TGI,KM12 colon,8.1 µM
same,GI50,SK-OV-3 ovarian,2.72 µM
same,TGI,SK-OV-3 ovarian,12 µM
same,GI50,HT29 colon,4.79 µM
same,TGI,HT29 colon,> 100 µM
same,GI50,ACHN renal,4.52 µM
same,TGI,ACHN renal,57.4 µM
same,GI50,OVCAR-3 ovarian,2.17 µM
same,TGI,OVCAR-3 ovarian,4.55 µM
same,GI50,NCI-H23 lung,1.88 µM
same,TGI,NCI-H23 lung,4.27 µM
same,GI50,NCI-H460 lung,3.47 µM
same,TGI,NCI-H460 lung,> 100 µM
same,GI50,SK-MEL-28 melanoma,2.73 µM
same,TGI,SK-MEL-28 melanoma,7.59 µM
same,GI50,MCF7 breast,3.58 µM
same,TGI,MCF7 breast,> 100 µM
same,GI50,MOLT-4 leukemia,> 100 µM
same,TGI,MOLT-4 leukemia,> 100 µM
same,GI50,UACC-257 melanoma,4.08 µM
same,TGI,UACC-257 melanoma,> 100 µM
same,GI50,EKVX NSCLC,6.82 µM
same,TGI,EKVX NSCLC,> 100 µM
same,GI50,SF-295 CNS,3.63 µM
same,TGI,SF-295 CNS,> 100 µM
same,GI50,OVCAR-8 ovarian,3.35 µM
same,TGI,OVCAR-8 ovarian,> 100 µM
same,GI50,LOX IMVI melanoma,4.95 µM
same,TGI,LOX IMVI melanoma,> 100 µM
same,GI50,OVCAR-4 ovarian,2.56 µM
same,TGI,OVCAR-4 ovarian,> 100 µM
same,GI50,CCRF-CEM leukemia,> 100 µM
same,TGI,CCRF-CEM leukemia,> 100 µM
same,GI50,NCI/ADR-RES ovarian,4.41 µM
same,TGI,NCI/ADR-RES ovarian,> 100 µM
same,GI50,MALME-3M melanoma,2.59 µM
same,TGI,MALME-3M melanoma,8.92 µM
same,GI50,CAKI-1 renal,4.17 µM
same,TGI,CAKI-1 renal,> 100 µM
same,GI50,SNB-19 CNS,5.44 µM
same,TGI,SNB-19 CNS,65.8 µM
same,GI50,HL-60(TB) leukemia,> 100 µM
same,TGI,HL-60(TB) leukemia,> 100 µM
same,GI50,BT-549 breast,7.69 µM
same,TGI,BT-549 breast,> 100 µM
same,GI50,TK-10 renal,4.67 µM
same,TGI,TK-10 renal,76.6 µM
same,GI50,HCT-15 colon,23.8 µM
same,TGI,HCT-15 colon,> 100 µM
same,GI50,MDA-MB-435,3.89 µM
same,TGI,MDA-MB-435,> 100 µM
same,GI50,SF-268 CNS,1.88 µM
same,TGI,SF-268 CNS,4.37 µM
same,GI50,OVCAR-5 ovarian,3.63 µM
same,TGI,OVCAR-5 ovarian,13.6 µM
same,GI50,IGROV1 ovarian,1.6 µM
same,TGI,IGROV1 ovarian,4.99 µM
same,GI50,T-47D breast,1.71 µM
same,TGI,T-47D breast,6.05 µM
same,GI50,A549 NSCLC,3.25 µM
same,TGI,A549 NSCLC,> 100 µM
same,GI50,SK-MEL-5 melanoma,3.12 µM
same,TGI,SK-MEL-5 melanoma,> 100 µM
same,GI50,U251 CNS,1.85 µM
same,TGI,U251 CNS,4.33 µM
same,GI50,SF-539 CNS,1.7 µM
same,TGI,SF-539 CNS,3.25 µM
same,GI50,COLO 205 colon,4.16 µM
same,TGI,COLO 205 colon,51.4 µM
same,GI50,PC-3 prostate,2.83 µM
same,TGI,PC-3 prostate,> 100 µM
same,GI50,RXF 393 renal,2.66 µM
same,TGI,RXF 393 renal,8.85 µM
same,GI50,UO-31 renal,2.16 µM
same,TGI,UO-31 renal,13.7 µM
same,GI50,SW-620 colon,4.78 µM
same,TGI,SW-620 colon,> 100 µM
same,GI50,SK-MEL-2 melanoma,7.44 µM
same,TGI,SK-MEL-2 melanoma,> 100 µM
same,GI50,HCC-2998 colon,2.77 µM
same,TGI,HCC-2998 colon,9.4 µM
same,GI50,SNB-75 CNS,6.58 µM
same,TGI,SNB-75 CNS,> 100 µM
